Results on seven compounds are retold here after patent US10214710B2, “Intercalated bleach compositions, related methods of manufacture and use” (The Clorox Company, priority 2013, dated 2019).

Data set [1] is described as follows: pH buffering and hypochlorite release on HCl addition. It is filed as physicochemical. The method, then:
The buffering characteristics of the MIB compositions, as well as the ability to accelerate release of hypochlorite through addition of an acid were tested. It is believed that the MgO and/or Mg(OH)2 component present within the intercalated bleach compound acts to buffer the pH to a preferred region (e.g., about 8 to about 11.5) for enhanced hypochlorite stability. FIG. 4A plots the pH profile over time as hydrochloric acid (HCl) is added to the MIB aqueous solution at periodic intervals.
FIG. 4B plots the concentration of hypochlorite in solution (ppm of OCl) as a function of how many millimoles of HCl are added.
FIGS. 5A-5B plot similar data as described above with respect to FIGS. 4A-4B, but for a dibasic magnesium hypochlorite composition including 34% available chlorine by weight. […] As such, the dibasic magnesium hypochlorite is not capable of maintaining a relatively high pH for the solution, as are the MIB compositions. Such improved buffering capacity (i.e., the ability to maintain a higher pH for longer) greatly improves the stability of the bleach composition.

Data set [2] in a line: Humidity stability, storage at 80° F. and 80% relative humidity. The data set is classed as physicochemical. The method, then:
In addition to the stability testing described above, the magnesium intercalated bleach compositions were tested for their resistance to humidity (i.e., their ability to resist degradation upon exposure to humidity). The results were compared with the humidity stability of alternative solid hypochlorite releasing products, specifically dibasic magnesium hypochlorite and a mixture of calcium hypochlorite and magnesium oxide. […] As shown, the initial weight percent hypochlorite was measured. Some samples were stored open, while others were stored closed, and the weight percentage of remaining hypochlorite was measured after the 2 month storage.
Two MIB samples were tested.

A short description of data set [3]: Relative ratings of solid hypochlorite bleach products. The note with it: relative rating.
Data set [4] can be described thus: Differential scanning calorimetry (DSC) thermodynamic stability and adjuvant compatibility. It is filed as physicochemical.

Take “Mg(OCl)2.2Mg(OH)2 [dibasic magnesium hypochlorite]”: the “hypochlorite (bleach) release as a function of HCl added” value in data set [1] (FIG. 4B / 5B) is “not significantly aided by acid addition”. Moreover, the “pH (buffering) recovery after HCl addition” value in data set [1] (HCl added at periodic intervals, FIG. 4A / 5A) is “significantly slower and less complete”. The “hypochlorite remaining, open sample” value in data set [2] (2 months, 80° F., 80% relative humidity, stored open) is reported as ~0 % by weight. For the same compound, in data set [2] (before the 2 month storage, FIG. 3A), the initial hypochlorite concentration entry is “about 25 % by weight”.
With `O=C1CN(Cl)C(=O)N1Cl` [Dichlorohydantoin], in data set [3], the “Bleach Stability” value came to 5, the “Moisture Tolerance” value turned out to be 1 and the “Solution Clarity” value worked out at 1.
Take `[Li+].[O-]Cl` [Li(OCl)2, lithium hypochlorite]: in data set [3], the “Bleach Stability” value amounted to 1, the “Moisture Tolerance” value turned out to be 3 and the “Solution Clarity” value came to 5.
Take “sodium hypochlorite phosphate adduct [Na(OCl)2 phosphate adduct]”: in data set [3], the “Bleach Stability” value is 1, the “Moisture Tolerance” value was 3 and the “Solution Clarity” value amounted to 5.
As for Trichloromelamine, in data set [3], the “Moisture Tolerance” value is 3 and the “Solution Clarity” value is 1.
On to `O=c1nc([O-])n(Cl)c(=O)n1Cl.[Na+]` [sodium dichloroisocyanurate], for which the exothermic decomposition reactions result in data set [4] (temperature range of 10° C. to 200° C., FIG. 7C) was “no exothermic decomposition reactions”.
Consider `[Ca+2].[O-]Cl.[O-]Cl` [Calcium hypochlorite, calcium hypochlorite], for which, in data set [3], the “Bleach Stability” value was determined as 3, the “Moisture Tolerance” value is listed as 3 and the “Solution Clarity” value stood at 3. Also, in data set [4] (FIG. 7B), the “energy given off in exothermic decomposition” value came out at 401 J/g. For the same compound, the decomposition reaction temperature entry in data set [4] (endothermic for MIB, exothermic for calcium hypochlorite) was “about 212 °C”.
